Common to all, as to assay: Post-emergence test experiment (Table 3, 1000 g/ha)
Holding throughout (type): in vivo
Holding throughout (details): post-emergence spray, after 3 weeks, fresh weight inhibition

Test [1] relates to Monochoria vaginalis. A digest of the protocol: (§1)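 Weed seeds sown in soil-filled pots in greenhouse, sprayed at 2-3 leaf stage (2 weeks after sowing) with compound in acetone/tween-80 plus methyl oleate emulsible concentrate (1.5 L/ha) diluted in water. Fresh-weight growth inhibition scored after 3 weeks on 0-5 scale (5: >85%, 0: <5%).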
Test [2] relates to Setaria viridis. Summed up:
as §1

The subject of test [3] is Leptochloa chinensis. A digest of the protocol: as §1
The test system of test [4] is Abutilon theophrasti. Summed up:
as §1

For test [5], the system named is Galium spurium. A digest of the protocol:
as §1

Test [6] has as its system Digitaria sanguinalis. Summed up:
as §1

We go through 13 compounds from US12391648B2, “Pyridyloxy thioester derivative and preparation method therefor, herbicidal composition, and application” (Qingdao Kingagroot Chemical Compound Co., Ltd., priority 2018, dated 2025).

Each structure is given as a SMILES string.

With `CCOC(=O)SC(=O)C(C)Oc1nc(F)c(Cl)c(N)c1Cl` (stereo not drawn) [Compound 101], the “Activity level (growth inhibition rate) Monochoria Vaginalis” value in test [1] is on record as 5 (Level 5: the growth inhibition rate is greater than 85%). In test [2], the “Activity level (growth inhibition rate) Setaria viridis” value is recorded as 5 (Level 5: the growth inhibition rate is greater than 85%). In addition, in test [3], the “Activity level (growth inhibition rate) Leptochloa chinensis” value is on record as 5 (Level 5: the growth inhibition rate is greater than 85%). Besides, the “Activity level (growth inhibition rate) Abutilon theophrasti” value in test [4] is recorded as 5 (Level 5: the growth inhibition rate is greater than 85%). Further, the “Activity level (growth inhibition rate) Galium spurium” value in test [5] is 5 (Level 5: the growth inhibition rate is greater than 85%). In addition, the “Activity level (growth inhibition rate) Digitaria sanguinalis” value in test [6] was 5 (Level 5: the growth inhibition rate is greater than 85%).

With `CC(C)=NSC(=O)C(C)Oc1nc(F)c(Cl)c(N)c1Cl` (stereo not drawn) [Compound 102], the “Activity level (growth inhibition rate) Monochoria Vaginalis” value in test [1] was 5 (Level 5: the growth inhibition rate is greater than 85%). Also, the “Activity level (growth inhibition rate) Setaria viridis” value in test [2] is 5 (Level 5: the growth inhibition rate is greater than 85%). Also, the “Activity level (growth inhibition rate) Leptochloa chinensis” value in test [3] is 5 (Level 5: the growth inhibition rate is greater than 85%). Further, the “Activity level (growth inhibition rate) Abutilon theophrasti” value in test [4] is listed as 5 (Level 5: the growth inhibition rate is greater than 85%). Besides, the “Activity level (growth inhibition rate) Galium spurium” value in test [5] is 5 (Level 5: the growth inhibition rate is greater than 85%). Moreover, the “Activity level (growth inhibition rate) Digitaria sanguinalis” value in test [6] is given as 5 (Level 5: the growth inhibition rate is greater than 85%).

`CC(Oc1nc(F)c(Cl)c(N)c1Cl)C(=O)SC(N)C(=O)O` (stereo not drawn) [Compound 103]: the “Activity level (growth inhibition rate) Monochoria Vaginalis” value in test [1] is recorded as 5 (Level 5: the growth inhibition rate is greater than 85%). Further, in test [2], the “Activity level (growth inhibition rate) Setaria viridis” value is listed as 5 (Level 5: the growth inhibition rate is greater than 85%). In addition, in test [3], the “Activity level (growth inhibition rate) Leptochloa chinensis” value is 5 (Level 5: the growth inhibition rate is greater than 85%). In addition, in test [4], the “Activity level (growth inhibition rate) Abutilon theophrasti” value is 5 (Level 5: the growth inhibition rate is greater than 85%). In addition, the “Activity level (growth inhibition rate) Galium spurium” value in test [5] is recorded as 5 (Level 5: the growth inhibition rate is greater than 85%). Moreover, the “Activity level (growth inhibition rate) Digitaria sanguinalis” value in test [6] was 5 (Level 5: the growth inhibition rate is greater than 85%).

For `COC(=O)C(NC(=O)OC(C)(C)C)SC(=O)C(C)Oc1nc(F)c(Cl)c(N)c1Cl` (stereo not drawn) [Compound 104], in test [1], the “Activity level (growth inhibition rate) Monochoria Vaginalis” value is listed as 5 (Level 5: the growth inhibition rate is greater than 85%). The “Activity level (growth inhibition rate) Setaria viridis” value in test [2] was 5 (Level 5: the growth inhibition rate is greater than 85%). Further, the “Activity level (growth inhibition rate) Leptochloa chinensis” value in test [3] is listed as 5 (Level 5: the growth inhibition rate is greater than 85%). Besides, the “Activity level (growth inhibition rate) Abutilon theophrasti” value in test [4] is reported as 5 (Level 5: the growth inhibition rate is greater than 85%). Also, the “Activity level (growth inhibition rate) Galium spurium” value in test [5] is on record as 5 (Level 5: the growth inhibition rate is greater than 85%). In addition, the “Activity level (growth inhibition rate) Digitaria sanguinalis” value in test [6] was 5 (Level 5: the growth inhibition rate is greater than 85%).

With `CC(Oc1nc(F)c(Cl)c(N)c1Cl)C(=O)SS(C)(=O)=O` (stereo not drawn) [Compound 105], the “Activity level (growth inhibition rate) Monochoria Vaginalis” value in test [1] is on record as 5 (Level 5: the growth inhibition rate is greater than 85%). The “Activity level (growth inhibition rate) Setaria viridis” value in test [2] is reported as 5 (Level 5: the growth inhibition rate is greater than 85%). For the same compound, in test [3], the “Activity level (growth inhibition rate) Leptochloa chinensis” value was 5 (Level 5: the growth inhibition rate is greater than 85%). For the same compound, the “Activity level (growth inhibition rate) Abutilon theophrasti” value in test [4] is 5 (Level 5: the growth inhibition rate is greater than 85%). In addition, the “Activity level (growth inhibition rate) Galium spurium” value in test [5] is listed as 5 (Level 5: the growth inhibition rate is greater than 85%). Also, the “Activity level (growth inhibition rate) Digitaria sanguinalis” value in test [6] is 5 (Level 5: the growth inhibition rate is greater than 85%).

As for `CC(Oc1nc(F)c(Cl)c(N)c1Cl)C(=O)SC1CCCO1` (stereo not drawn) [Compound 106], the “Activity level (growth inhibition rate) Monochoria Vaginalis” value in test [1] is recorded as 5 (Level 5: the growth inhibition rate is greater than 85%). Also, the “Activity level (growth inhibition rate) Setaria viridis” value in test [2] was 5 (Level 5: the growth inhibition rate is greater than 85%). Further, the “Activity level (growth inhibition rate) Leptochloa chinensis” value in test [3] was 5 (Level 5: the growth inhibition rate is greater than 85%). In addition, the “Activity level (growth inhibition rate) Abutilon theophrasti” value in test [4] is recorded as 5 (Level 5: the growth inhibition rate is greater than 85%). Moreover, in test [5], the “Activity level (growth inhibition rate) Galium spurium” value was 5 (Level 5: the growth inhibition rate is greater than 85%). In addition, the “Activity level (growth inhibition rate) Digitaria sanguinalis” value in test [6] was 5 (Level 5: the growth inhibition rate is greater than 85%).

For the compound `CC(Oc1nc(F)c(Cl)c(N)c1Cl)C(=O)Sc1ccccc1` (stereo not drawn) [Compound 107], in test [1], the “Activity level (growth inhibition rate) Monochoria Vaginalis” value was 5 (Level 5: the growth inhibition rate is greater than 85%). Also, the “Activity level (growth inhibition rate) Setaria viridis” value in test [2] is on record as 5 (Level 5: the growth inhibition rate is greater than 85%). For the same compound, the “Activity level (growth inhibition rate) Leptochloa chinensis” value in test [3] is on record as 5 (Level 5: the growth inhibition rate is greater than 85%). In addition, in test [4], the “Activity level (growth inhibition rate) Abutilon theophrasti” value was 5 (Level 5: the growth inhibition rate is greater than 85%). In addition, the “Activity level (growth inhibition rate) Galium spurium” value in test [5] was 5 (Level 5: the growth inhibition rate is greater than 85%). Further, in test [6], the “Activity level (growth inhibition rate) Digitaria sanguinalis” value is 5 (Level 5: the growth inhibition rate is greater than 85%).

As to `Cc1ccccc1SC(=O)C(C)Oc1nc(F)c(Cl)c(N)c1Cl` (stereo not drawn) [Compound 108], the “Activity level (growth inhibition rate) Monochoria Vaginalis” value in test [1] is reported as 5 (Level 5: the growth inhibition rate is greater than 85%). Further, the “Activity level (growth inhibition rate) Setaria viridis” value in test [2] is given as 5 (Level 5: the growth inhibition rate is greater than 85%). Besides, the “Activity level (growth inhibition rate) Leptochloa chinensis” value in test [3] is on record as 5 (Level 5: the growth inhibition rate is greater than 85%). Also, the “Activity level (growth inhibition rate) Abutilon theophrasti” value in test [4] is 5 (Level 5: the growth inhibition rate is greater than 85%). Besides, the “Activity level (growth inhibition rate) Galium spurium” value in test [5] is reported as 5 (Level 5: the growth inhibition rate is greater than 85%). Further, the “Activity level (growth inhibition rate) Digitaria sanguinalis” value in test [6] is recorded as 5 (Level 5: the growth inhibition rate is greater than 85%).

As for `CC(Oc1nc(F)c(Cl)c(N)c1Cl)C(=O)Sc1cccc(N(C)C)c1` (stereo not drawn) [Compound 109], the “Activity level (growth inhibition rate) Monochoria Vaginalis” value in test [1] was 5 (Level 5: the growth inhibition rate is greater than 85%). Besides, the “Activity level (growth inhibition rate) Setaria viridis” value in test [2] was 5 (Level 5: the growth inhibition rate is greater than 85%). Moreover, the “Activity level (growth inhibition rate) Leptochloa chinensis” value in test [3] is 5 (Level 5: the growth inhibition rate is greater than 85%). In test [4], the “Activity level (growth inhibition rate) Abutilon theophrasti” value was 5 (Level 5: the growth inhibition rate is greater than 85%). The “Activity level (growth inhibition rate) Galium spurium” value in test [5] is 5 (Level 5: the growth inhibition rate is greater than 85%). In addition, in test [6], the “Activity level (growth inhibition rate) Digitaria sanguinalis” value is 5 (Level 5: the growth inhibition rate is greater than 85%).

In the case of `CC(Oc1nc(F)c(Cl)c(N)c1Cl)C(=O)Sc1cccc(Cl)c1` (stereo not drawn) [Compound 110], in test [1], the “Activity level (growth inhibition rate) Monochoria Vaginalis” value was 5 (Level 5: the growth inhibition rate is greater than 85%). Moreover, in test [2], the “Activity level (growth inhibition rate) Setaria viridis” value is 5 (Level 5: the growth inhibition rate is greater than 85%). The “Activity level (growth inhibition rate) Leptochloa chinensis” value in test [3] is on record as 5 (Level 5: the growth inhibition rate is greater than 85%). For the same compound, in test [4], the “Activity level (growth inhibition rate) Abutilon theophrasti” value is listed as 5 (Level 5: the growth inhibition rate is greater than 85%). The “Activity level (growth inhibition rate) Galium spurium” value in test [5] is 5 (Level 5: the growth inhibition rate is greater than 85%). In test [6], the “Activity level (growth inhibition rate) Digitaria sanguinalis” value was 5 (Level 5: the growth inhibition rate is greater than 85%).

In the case of `COc1ccc(SC(=O)C(C)Oc2nc(F)c(Cl)c(N)c2Cl)cc1` (stereo not drawn) [Compound 111], the “Activity level (growth inhibition rate) Monochoria Vaginalis” value in test [1] is 5 (Level 5: the growth inhibition rate is greater than 85%). Moreover, in test [2], the “Activity level (growth inhibition rate) Setaria viridis” value is listed as 5 (Level 5: the growth inhibition rate is greater than 85%). Besides, in test [3], the “Activity level (growth inhibition rate) Leptochloa chinensis” value is on record as 5 (Level 5: the growth inhibition rate is greater than 85%). Besides, the “Activity level (growth inhibition rate) Abutilon theophrasti” value in test [4] is 5 (Level 5: the growth inhibition rate is greater than 85%). Besides, in test [5], the “Activity level (growth inhibition rate) Galium spurium” value was 5 (Level 5: the growth inhibition rate is greater than 85%). In addition, in test [6], the “Activity level (growth inhibition rate) Digitaria sanguinalis” value is given as 5 (Level 5: the growth inhibition rate is greater than 85%).

In the case of `CC(Oc1nc(F)c(Cl)c(N)c1Cl)C(=O)Sc1ccc(C(F)(F)F)cc1` (stereo not drawn) [Compound 112], the “Activity level (growth inhibition rate) Monochoria Vaginalis” value in test [1] is reported as 5 (Level 5: the growth inhibition rate is greater than 85%). Besides, in test [2], the “Activity level (growth inhibition rate) Setaria viridis” value was 5 (Level 5: the growth inhibition rate is greater than 85%). In test [3], the “Activity level (growth inhibition rate) Leptochloa chinensis” value is recorded as 5 (Level 5: the growth inhibition rate is greater than 85%). In test [4], the “Activity level (growth inhibition rate) Abutilon theophrasti” value is reported as 5 (Level 5: the growth inhibition rate is greater than 85%). Further, the “Activity level (growth inhibition rate) Galium spurium” value in test [5] was 5 (Level 5: the growth inhibition rate is greater than 85%). The “Activity level (growth inhibition rate) Digitaria sanguinalis” value in test [6] is recorded as 5 (Level 5: the growth inhibition rate is greater than 85%).

As to `CC(Oc1nc(F)c(Cl)c(N)c1Cl)C(=O)Sc1cccc(C(C)C)c1` (stereo not drawn) [Compound 113], in test [1], the “Activity level (growth inhibition rate) Monochoria Vaginalis” value is given as 5 (Level 5: the growth inhibition rate is greater than 85%). Besides, the “Activity level (growth inhibition rate) Setaria viridis” value in test [2] is recorded as 5 (Level 5: the growth inhibition rate is greater than 85%). Moreover, in test [3], the “Activity level (growth inhibition rate) Leptochloa chinensis” value was 5 (Level 5: the growth inhibition rate is greater than 85%). Moreover, the “Activity level (growth inhibition rate) Abutilon theophrasti” value in test [4] is reported as 5 (Level 5: the growth inhibition rate is greater than 85%). Further, the “Activity level (growth inhibition rate) Galium spurium” value in test [5] is listed as 5 (Level 5: the growth inhibition rate is greater than 85%). Besides, the “Activity level (growth inhibition rate) Digitaria sanguinalis” value in test [6] is listed as 5 (Level 5: the growth inhibition rate is greater than 85%).
